Like-named read-outs stand apart in the source and are kept apart here.
Experiments:
Type in all cases: cell-based, human
HTT mRNA = assay: RT-qPCR splicing assay, HTT canonical (CJ) and alternative (AJ) junction mRNA; details: for AC50: read-out: HTT AJ (AC50, increase in AJ mRNA)
How it was run: (§1)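 Cells: A673 (DMEM/10% FBS, plated 24 h before) or K562 (IMDM/10% FBS). Dosing: 11-pt 3-fold series, 10 uM top final, ≤0.25% DMSO, 24 h, 37 °C/5% CO2. Readout: RT-qPCR of CJ and AJ junctions, housekeeper-normalized, RQ = 2^(-ΔΔCt) vs DMSO.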

MYB mRNA = assay: RT-qPCR splicing assay, MYB canonical (CJ) and alternative (AJ) junction mRNA; details: for AC50: read-out: MYB AJ (AC50, increase in AJ mRNA)
How it was run: as §1

Target C mRNA = assay: RT-qPCR splicing assay panel, Target C canonical junction (CJ) mRNA; details: canonical junction (CJ) mRNA, RT-qPCR panel, Table 4A, read-out: Target C, decrease in CJ mRNA levels, IC50
How it was run: as §1

SMN2 mRNA = assay: RT-qPCR splicing assay panel, SMN2 canonical junction (CJ) mRNA; details: canonical junction (CJ) mRNA, RT-qPCR panel, Table 4A, read-out: SMN2, decrease in CJ mRNA levels, IC50
How it was run: as §1

[1] = Homo sapiens, 24 h, Table 3A, A673 or K562 cells, 24 h treatment
[2] = Homo sapiens, 24 h, Table 3A, A673 or K562 cells, 24 h treatment, read-out: HTT CJ (IC50, decrease in CJ mRNA)
[3] = Homo sapiens, canonical junction (CJ) mRNA, RT-qPCR panel, Table 4A, read-out: HTT, decrease in CJ mRNA levels, IC50
[4] = Homo sapiens, 24 h, Table 3A, A673 or K562 cells, 24 h treatment, read-out: MYB CJ (IC50, decrease in CJ mRNA)
[5] = Homo sapiens, canonical junction (CJ) mRNA, RT-qPCR panel, Table 4A, read-out: MYB, decrease in CJ mRNA levels, IC50
[6] = Table 3A, A673 or K562 cells, 24 h treatment
[7] = Table 3A, A673 or K562 cells, 24 h treatment, read-out: HTT CJ (IC50, decrease in CJ mRNA)
[8] = canonical junction (CJ) mRNA, RT-qPCR panel, Table 4A, read-out: HTT, decrease in CJ mRNA levels, IC50
[9] = Table 3A, A673 or K562 cells, 24 h treatment, read-out: MYB CJ (IC50, decrease in CJ mRNA)
[10] = canonical junction (CJ) mRNA, RT-qPCR panel, Table 4A, read-out: MYB, decrease in CJ mRNA levels, IC50

IC50 (HTT mRNA; [2]) [nM] | IC50 (HTT mRNA; [3]) [nM] | IC50 (MYB mRNA; [4]) [nM] | IC50 (MYB mRNA; [5]) [nM] | IC50 (Target C mRNA; Homo sapiens) [nM] | IC50 (SMN2 mRNA; Homo sapiens) [nM] | SMILES | AC50 (HTT mRNA; [1]) [nM] | AC50 (MYB mRNA; [1]) [nM] | AC50 (HTT mRNA; [6]) [nM] | IC50 (HTT mRNA; [7]) [nM] | IC50 (HTT mRNA; [8]) [nM] | AC50 (MYB mRNA; [6]) [nM] | IC50 (MYB mRNA; [9]) [nM] | IC50 (MYB mRNA; [10]) [nM] | IC50 (Target C mRNA) [nM] | IC50 (SMN2 mRNA) [nM]
< 100 | < 100 | 100 to 1000 | 100 to 1000 | 100 to 1000 | < 100 | Cc1ncc(-c2cc(O)c(-c3ccc(N4CC[C@H](NC5CCC5)C4)nn3)cc2F)o1 [Compound 229, 2-{6-[(3S)-3-(cyclobutylamino)pyrrolidin-1-yl]pyridazin-3-yl}-4-fluoro-5-(2-methyl-1,3-oxazol-5-yl) phenol] | < 100 | 100 to 1000 | – | – | – | – | – | – | – | –
100 to 1000 | 100 to 1000 | 1000 to 10000 | 1000 to 10000 | 1000 to 10000 | < 100 | COc1cc(-c2cc(O)c(-c3ccc(N4CC[C@@H](NC5CCC5)C4)nn3)cc2F)cnn1 [Compound 230, 2-{6-[(3R)-3-(cyclobutylamino)pyrrolidin-1-yl]pyridazin-3-yl}-4-fluoro-5-(6-methoxypyridazin-4-yl)phenol] | 100 to 1000 | 1000 to 10000 | – | – | – | – | – | – | – | –
< 100 | < 100 | 100 to 1000 | 100 to 1000 | 100 to 1000 | < 100 | COc1cc(-c2cc(O)c(-c3ccc(N4CC[C@H](NC5CCC5)C4)nn3)cc2F)cnn1 [Compound 231, 2-{6-[(3S)-3-(cyclobutylamino)pyrrolidin-1-yl]pyridazin-3-yl}-4-fluoro-5-(6-methoxypyridazin-4-yl)phenol] | < 100 | 100 to 1000 | – | – | – | – | – | – | – | –
< 100 | < 100 | 100 to 1000 | 100 to 1000 | 100 to 1000 | < 100 | COc1cc(-c2cc(O)c(-c3ccc(N4CC[C@@H](N[C@H]5C[C@H](F)C5)C4)nn3)cc2F)cnn1 [Compound 232] | 100 to 1000 | 100 to 1000 | – | – | – | – | – | – | – | –
< 100 | < 100 | 100 to 1000 | 100 to 1000 | < 100 | < 100 | CC(C)(C)N[C@H]1CCN(c2ccc(-c3ccc(-c4cn[nH]c4)cc3O)nn2)C1 [Compound 261] | < 100 | 100 to 1000 | – | – | – | – | – | – | – | –
< 100 | < 100 | < 100 | < 100 | < 100 | < 100 | CC(C)(C)N[C@@H]1CCN(c2ccc(-c3ccc(-c4cn[nH]c4)cc3O)nn2)C1 [Compound 262] | < 100 | < 100 | – | – | – | – | – | – | – | –
< 100 | < 100 | 100 to 1000 | 100 to 1000 | 100 to 1000 | < 100 | Oc1cc(-c2cn[nH]c2)ccc1-c1ccc(N2CCN[C@@H](C3CC3)C2)nn1 [Compound 263] | < 100 | 100 to 1000 | – | – | – | – | – | – | – | –
< 100 | < 100 | 100 to 1000 | 100 to 1000 | 100 to 1000 | < 100 | COc1cc(-c2ccc(-c3ccc(N4CC[C@@H](NC5CCC5)C4)nn3)c(O)c2)cnn1 [Compound 264] | 100 to 1000 | 100 to 1000 | – | – | – | – | – | – | – | –
– | – | – | – | – | – | COc1cc(-c2ccc(-c3ccc(N4CC[C@H](NC5(C)CC5)C4)nn3)c(O)c2)cnn1 [Compound 265, 5-(6-methoxypyridazin-4-yl)-2-{6-[(3S)-3-[(1-methylcyclopropyl)amino]pyrrolidin-1-yl]pyridazin-3-yl}phenol] | – | – | < 100 | < 100 | < 100 | < 100 | < 100 | < 100 | < 100 | < 100
– | – | – | – | – | – | COc1cc(-c2ccc(-c3ccc(N4CC[C@@H](NC5(C)CC5)C4)nn3)c(O)c2)cnn1 [Compound 266, 5-(6-methoxypyridazin-4-yl)-2-{6-[(3R)-3-[(1-methylcyclopropyl)amino]pyrrolidin-1-yl]pyridazin-3-yl}phenol] | – | – | < 100 | < 100 | < 100 | 100 to 1000 | 100 to 1000 | 100 to 1000 | 100 to 1000 | < 100
< 100 | < 100 | < 100 | < 100 | < 100 | < 100 | Cc1ncc(-c2cc(O)c(-c3ccc(N4CC[C@H](N(C)C5CCC5)C4)nn3)cc2F)s1 [Compound 267] | < 100 | < 100 | – | – | – | – | – | – | – | –
100 to 1000 | 100 to 1000 | > 10000 | > 10000 | > 10000 | 100 to 1000 | Cc1ncc(-c2ccc(-c3ccc(N4CC[C@H](N(C)C5CCC5)C4)nn3)c(O)c2)s1 [Compound 268] | 1000 to 10000 | > 10000 | – | – | – | – | – | – | – | –
< 100 | < 100 | < 100 | < 100 | < 100 | < 100 | Cc1ncc(-c2cc(O)c(-c3ccc(N4CC[C@@H](N(C)C5CCC5)C4)nn3)cc2F)s1 [Compound 269] | < 100 | 100 to 1000 | – | – | – | – | – | – | – | –
> 10000 | > 10000 | > 10000 | > 10000 | > 10000 | 100 to 1000 | Cc1ncc(-c2ccc(-c3ccc(N4CC[C@@H](N(C)C5CCC5)C4)nn3)c(O)c2)s1 [Compound 270, 2-{6-[(3R)-3-[cyclobutyl(methyl)amino]pyrrolidin-1-yl]pyridazin-3-yl}-5-(2-methyl-1,3-thiazol-5-yl) phenol] | > 10000 | > 10000 | – | – | – | – | – | – | – | –
< 100 | < 100 | < 100 | < 100 | < 100 | < 100 | COc1cc(-c2ccc(-c3ccc(OC4CC(C)(C)NC(C)(C)C4)nn3)c(O)c2)cnn1 [Compound 271] | < 100 | 100 to 1000 | – | – | – | – | – | – | – | –
< 100 | < 100 | 100 to 1000 | 100 to 1000 | 100 to 1000 | < 100 | COc1cc(-c2cc(O)c(-c3ccc(OC4CC(C)(C)NC(C)(C)C4)nn3)cc2F)cnn1 [Compound 272] | < 100 | 100 to 1000 | – | – | – | – | – | – | – | –
100 to 1000 | 100 to 1000 | 100 to 1000 | 100 to 1000 | 100 to 1000 | < 100 | COc1cc(-c2cc(O)c(-c3ccc(N4CCC(N[C@H]5C[C@@H](F)C5)C4)nn3)cc2F)cnn1 (some centres unmarked) [Compound 273, 4-fluoro-5-(6-methoxypyridazin-4-yl)-2-[6-(3-{[(1s,3s)-3-fluorocyclobutyl]amino}pyrrolidin-1-yl)pyridazin-3-yl]phenol] | 100 to 1000 | 100 to 1000 | – | – | – | – | – | – | – | –
< 100 | < 100 | 100 to 1000 | 100 to 1000 | 100 to 1000 | < 100 | COc1cc(-c2cc(O)c(-c3ccc(N4CCC(N[C@H]5C[C@H](F)C5)C4)nn3)cc2F)cnn1 (some centres unmarked) [Compound 274] | 100 to 1000 | 100 to 1000 | – | – | – | – | – | – | – | –
< 100 | < 100 | 100 to 1000 | 100 to 1000 | < 100 | < 100 | COc1cc(-c2ccc(-c3ccc(N4CCC(C)(NC5CCC5)C4)nn3)c(O)c2)cnn1 (centres unmarked) [Compound 275] | < 100 | 100 to 1000 | – | – | – | – | – | – | – | –
< 100 | < 100 | 100 to 1000 | 100 to 1000 | 100 to 1000 | < 100 | CCN(C1CCC1)[C@H]1CCN(c2ccc(-c3ccc(-c4cnnc(OC)c4)cc3O)nn2)C1 [Compound 276] | 100 to 1000 | 100 to 1000 | – | – | – | – | – | – | – | –
1000 to 10000 | 1000 to 10000 | 1000 to 10000 | 1000 to 10000 | > 10000 | 1000 to 10000 | CCc1cc(-c2ccc(-c3ccc(N4CC[C@@H](NC5CCC5)C4)nn3)c(O)c2)cnn1 [Compound 277, 2-{6-[(3R)-3-(cyclobutylamino)pyrrolidin-1-yl]pyridazin-3-yl}-5-(6-ethylpyridazin-4-yl)phenol] | > 10000 | > 10000 | – | – | – | – | – | – | – | –
1000 to 10000 | 1000 to 10000 | 1000 to 10000 | 1000 to 10000 | > 10000 | 1000 to 10000 | CCc1cc(-c2ccc(-c3ccc(N4CC[C@H](NC5CCC5)C4)nn3)c(O)c2)cnn1 [Compound 278] | > 10000 | > 10000 | – | – | – | – | – | – | – | –

Reference: US20250333397A1 (REMIX THERAPEUTICS INC., priority 2021, published 2025)
